Experimental data taken from patent publication US9326517B2, “Synergistic combination of a chlorotoluron compound and IPBC for dry film protection” (Dow Global Technologies LLC, priority 2013, dated 2016).

Columns and labels:
Chlorella sp. ATCC 7516 = experiment: Algal efficacy testing of dry paint films (modified ASTM 5589, 6-well plates); format: cell-based; conditions: 3 weeks; for Total conc: total biocide concentration in paint used as minimum inhibitory concentration for SI, pass level ≧75% inhibition
Description: Slurries containing 33% antimicrobial active ingredient (chlorotoluron) were post added to a white, acrylic/silicone based outdoor paint free of biocides to give a total active ingredient concentration of 10000 and 1000 ppm respectively. ROCIMA™ 250 (40% IPBC) was post added to a white, acrylic/silicone based outdoor paint free of biocides to give a total active ingredient concentration of 10000 and 1000 ppm respectively. These paints were then diluted with an antimicrobial free acrylic/silicone based paint and mixed to prepare targeted concentrations of antimicrobial compounds for the testing. The total biocides concentrations tested were 125, 250, 500, 1000, 2000 and 5000 ppm. After biocides addition or dilution, the paints were mixed 90 seconds with the horse power shaker (AXEL 75M3372/Agitateur SO-10MI) until uniformity was achieved. Paints containing different antimicrobial compounds at the same levels were mixed together in order to obtain the desired ratio of antimicrobial compounds. After one day, the paints were applied to Schleicher & Schuell filter paper at 280 μm wet film thickness and dried for 3 days at room temperature avoiding direct exposure to sunlight. Square discs (1.6 cm×1.6 cm) were cut out from each panel and were used as the substrate for algal efficacy tests. This sample size allowed for an agar border when the sample disc was placed into the well of the test plate.
Algal efficacy was tested according to modified ASTM 5589 which is a standard accelerated test method for determining resistance of various coatings (including paints) to algal defacement. To accommodate for high-throughput screening, this method was scaled down from petri dishes to 6-well plates. Bold Modified Basal Freshwater Nutrient Solution was used as growth medium. A single coated filter paper coupon was placed with a pair of sterile forceps at the center of the agar plug (on top) with the painted surface facing upwards. Algal inoculum was prepared by mixing equal concentrations (1×10^6 cfu/ml) and equal volumes of exponentially growing algae cultures.
Each well that contains a tested coupon was inoculated with 1750 μl of algal suspensions (1×10^6 cfu/ml) making sure that the whole surface (paint film as well as the agar surrounding it) was evenly covered. The plates were incubated at room temp (21° C.-25° C.) with cyclic exposure to light and dark phases, for a period of three weeks. The total area inhibited was evaluated at the end of each week according to percent area covered in 5% increments.
At the end of the three week incubation period, the samples were scored for percent inhibition regarding color intensity compared to the blank sample.
The Synergy Index calculation was performed as follows.
The SI is calculated based on F. C. Kull et. […]

[1] = cited from earlier work

Structure (SMILES) | Total conc (Chlorella sp. ATCC 7516) | inhibition at 1000 ppm (Chlorella sp. ATCC 7516; 504 h, total conc 1000 ppm in paint) | solubility in water [1] | inhibition at 2000 ppm (Chlorella sp. ATCC 7516; 504 h, total conc 2000 ppm in paint)
Cc1ccc(NC(=O)N(C)C)cc1Cl [Chlorotoluron, N′-(3-chloro-4-methylphenyl)-N,N-dimethylurea] | 1000 ppm | 100% | relatively low | –
CCCCNC(=O)OCC#CI [IPBC, 3-Iodo-2-propynyl butylcarbamate] | 2000 ppm | – | – | 70%
